Measurements taken from patent US20240101572A1, “DIHYDROOXADIAZINONE COMPOUND AND PHARMACEUTICAL USE THEREOF” (Japan Tobacco Inc., priority 2022, published 2024).
Where two headings read alike, the source gives them in different places.

Tests used:
full-length human PLD2 = full-length human PLD2 (Homo sapiens (Human), UniProt O14939); assay: Evaluation of human PLD2 enzyme inhibitory activity (Amplex Red / choline oxidase fluorescence); type: biochemical
Procedure, shortened: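 Enzyme was N-terminal FLAG-tagged full-length human PLD2 (1-933), expressed in Expi293F cells and anti-FLAG purified. Compound (5% DMSO final) was incubated with enzyme (6 nmol/L solution) and 1,2-diheptanoyl-PC (6 mmol/L solution) in HEPES pH 7.5, KCl, EGTA, MgCl2, NP-40, BSA buffer for 60 min at room temperature. Choline was detected with Amplex Red/choline oxidase/HRP.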

full-length human PLD1 = full-length human PLD1 (Homo sapiens (Human), UniProt Q13393); assay: Evaluation of human PLD1 enzyme inhibitory activity (Amplex Red / choline oxidase fluorescence); type: biochemical
Chain of full-length human PLD1 (Q13393 other isoform, or with tags, fused parts or gaps): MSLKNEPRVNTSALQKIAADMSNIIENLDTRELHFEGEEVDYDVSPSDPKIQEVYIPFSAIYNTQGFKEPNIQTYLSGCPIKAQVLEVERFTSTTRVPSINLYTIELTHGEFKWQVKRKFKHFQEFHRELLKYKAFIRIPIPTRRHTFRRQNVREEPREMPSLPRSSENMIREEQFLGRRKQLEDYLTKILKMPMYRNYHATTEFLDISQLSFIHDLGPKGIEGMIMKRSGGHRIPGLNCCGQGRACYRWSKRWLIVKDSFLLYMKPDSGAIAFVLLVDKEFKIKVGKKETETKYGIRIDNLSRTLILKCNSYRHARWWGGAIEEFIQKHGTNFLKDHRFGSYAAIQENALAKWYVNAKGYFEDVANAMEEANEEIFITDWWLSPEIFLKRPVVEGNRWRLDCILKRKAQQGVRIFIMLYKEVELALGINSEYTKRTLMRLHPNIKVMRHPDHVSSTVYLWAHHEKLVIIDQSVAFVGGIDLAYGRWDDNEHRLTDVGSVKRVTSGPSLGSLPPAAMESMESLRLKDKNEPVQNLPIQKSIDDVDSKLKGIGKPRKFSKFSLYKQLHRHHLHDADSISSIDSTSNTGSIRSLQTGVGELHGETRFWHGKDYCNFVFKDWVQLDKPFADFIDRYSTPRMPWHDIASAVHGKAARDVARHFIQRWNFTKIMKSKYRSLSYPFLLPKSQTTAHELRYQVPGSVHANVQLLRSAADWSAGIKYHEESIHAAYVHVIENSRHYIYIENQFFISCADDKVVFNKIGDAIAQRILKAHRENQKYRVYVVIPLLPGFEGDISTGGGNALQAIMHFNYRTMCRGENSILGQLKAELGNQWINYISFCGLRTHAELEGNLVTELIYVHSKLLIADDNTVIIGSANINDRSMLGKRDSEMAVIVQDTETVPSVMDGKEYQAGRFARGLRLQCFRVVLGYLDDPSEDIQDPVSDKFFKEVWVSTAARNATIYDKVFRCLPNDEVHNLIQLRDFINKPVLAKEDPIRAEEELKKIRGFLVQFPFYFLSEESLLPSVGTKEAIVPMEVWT
Procedure, shortened: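 N-terminally FLAG-tagged full-length human PLD1 (1-1036), expressed in Expi293F and FLAG-purified, incubated with compound (5% DMSO final) and 1,2-diheptanoyl-sn-glycero-3-phosphocholine for 60 min at room temperature in HEPES pH 7.5 buffer. Released choline detected by Amplex Red/choline oxidase/HRP fluorescence.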

[1] = column 2 of continuation tables 2-12 to 2-14, read-out: human PLD2 enzyme inhibitory activity IC50
[2] = column 1 of continuation tables 2-12 to 2-14, read-out: human PLD1 enzyme inhibitory activity IC50
[3] = full-length human PLD2 enzyme, read-out: PLD2 IC50
[4] = full-length human PLD1 enzyme, read-out: PLD1 IC50
[5] = 10 μM compound, read-out: PLD2 inhibition rate at 10 μM
[6] = read-out: inhibition rate of PLD2 at 10 μM compound
[7] = 10 μM compound, read-out: PLD1 inhibition rate at 10 μM
[8] = read-out: inhibition rate of PLD1 at 10 μM compound

Chain of full-length human PLD2 (O14939 whole entry): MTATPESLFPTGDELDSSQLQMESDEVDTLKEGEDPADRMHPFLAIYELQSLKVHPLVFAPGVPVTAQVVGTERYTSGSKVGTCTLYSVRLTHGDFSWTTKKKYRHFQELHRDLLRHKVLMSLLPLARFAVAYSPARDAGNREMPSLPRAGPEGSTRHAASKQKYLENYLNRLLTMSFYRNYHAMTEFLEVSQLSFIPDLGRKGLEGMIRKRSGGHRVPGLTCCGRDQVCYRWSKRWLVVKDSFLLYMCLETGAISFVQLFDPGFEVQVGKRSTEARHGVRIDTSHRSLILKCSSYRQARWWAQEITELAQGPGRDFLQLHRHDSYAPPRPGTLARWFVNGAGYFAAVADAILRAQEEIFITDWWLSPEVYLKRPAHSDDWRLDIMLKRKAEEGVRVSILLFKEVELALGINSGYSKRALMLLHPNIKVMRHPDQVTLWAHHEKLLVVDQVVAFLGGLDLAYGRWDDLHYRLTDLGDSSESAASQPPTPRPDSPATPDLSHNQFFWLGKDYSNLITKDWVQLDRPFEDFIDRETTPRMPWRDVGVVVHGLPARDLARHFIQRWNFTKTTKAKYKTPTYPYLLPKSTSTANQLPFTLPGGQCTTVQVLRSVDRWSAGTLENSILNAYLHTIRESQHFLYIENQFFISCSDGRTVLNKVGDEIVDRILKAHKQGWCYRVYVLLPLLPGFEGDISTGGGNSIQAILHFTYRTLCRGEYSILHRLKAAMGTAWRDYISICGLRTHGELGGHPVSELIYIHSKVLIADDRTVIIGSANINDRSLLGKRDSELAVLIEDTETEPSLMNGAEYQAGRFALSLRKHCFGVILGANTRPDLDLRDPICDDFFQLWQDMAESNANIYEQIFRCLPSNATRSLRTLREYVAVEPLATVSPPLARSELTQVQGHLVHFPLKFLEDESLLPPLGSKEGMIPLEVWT

Compound | IC50 (full-length human PLD2; [3]) | IC50 (full-length human PLD1; [4]) | further results
[2H]C([2H])([2H])NC(=O)C(=O)N[C@@H](C)C[C@]1(C#N)CC[C@@]2(CC1)OC(=O)NN=C2c1ccccc1Br [Example 2-164] |  |  | IC50 (full-length human PLD2; [1]): < 10 nM; IC50 (full-length human PLD1; [2]): < 10 nM
C[C@@H](CN1CCC2(CC1)OC(=O)NN=C2c1cc(C#N)ccc1Br)NC(=O)c1cc(F)c[nH]1 [Example 302] | < 10 nM | 17 nM | 
CNC(=O)C(=O)NC[C@H](C)N1CCC2(CC1)OC(=O)NN=C2c1ccc(C#N)cc1Br [Example 329] | < 10 nM | 51 nM | 
Cc1cc(C(=O)N[C@@H](C)C[C@H]2CC[C@]3(CC2)OC(=O)NN=C3c2ccc(C(=O)NC3CC3)cc2C)[nH]n1 [Example 204] | 146 nM | 123 nM | 
Cc1cc(C(=O)N[C@@H](C)C[C@H]2CC[C@]3(CC2)OC(=O)NN=C3c2cnc(N3CCOCC3)cc2Cl)[nH]n1 [Example 226] | < 10 nM | 18 nM | 
CNC(=O)C(=O)N[C@@H](C)CN1CCC2(CC1)OC(=O)NN=C2c1ccc(Br)cc1C(F)(F)F [Example 328] | 34 nM | 48 nM | 
Cc1cc(F)ccc1C1=NNC(=O)O[C@]12CC[C@@H](C[C@H](C)NC(=O)N1CCCC1)CC2 [Example 136] | 170 nM | 155 nM | 
CSc1ccc(C2=NNC(=O)OC23CCN(C[C@H](C)NC(=O)c2cc(C)n[nH]2)CC3)c(Cl)c1 [Example 127] | < 10 nM | 25 nM | 
CNC(=O)C(=O)N[C@@H](C)C[C@]1(C#N)CC[C@@]2(CC1)OC(=O)NN=C2c1ccc(OC(F)F)cc1Br [Example 2-067] | < 10 nM | 15 nM | 
CNC(=O)C(=O)N[C@@H](C)C[C@H]1CC[C@]2(CC1)OC(=O)NN=C2c1cc(OC(F)F)ccc1Br [Example 184] | < 10 nM | < 10 nM | 
C[C@@H](C[C@H]1CC[C@]2(CC1)OC(=O)NN=C2c1ccc(F)cc1Br)NC(=O)C(=O)NC1CC1 [Example 203] | < 10 nM | 12 nM | 
C[C@@H](CN1CCC2(CC1)OC(=O)NN=C2c1ccc(F)cc1Br)NC(=O)N1CCC2(CC2)C1 [Example 284] | 40 nM | 61 nM | 
Cc1cc(C(=O)N[C@@H](C)C[C@H]2CC[C@]3(CC2)OC(=O)NN=C3c2cnc(N3CC4CCC(C3)O4)cc2C)[nH]n1 [Example 251] | < 10 nM | 17 nM | 
Cc1cc(C(=O)N[C@@H](C)C[C@H]2CC[C@]3(CC2)OC(=O)NN=C3c2cnc(N3C[C@@H]4C[C@H]3CO4)cc2C)[nH]n1 [Example 250] | < 10 nM | 22 nM | 
C[C@@H](CN1CCC2(CC1)OC(=O)NN=C2c1cc(C#N)ccc1Br)NC(=O)CCC(F)(F)F [Example 2-023] | 64 nM | 102 nM | 
C[C@@H](C[C@H]1CC[C@]2(CC1)OC(=O)NN=C2c1ccc(F)cc1Br)NC(=O)/C=C/CN(C)C [Example 279] | 44 nM | 86 nM | 
C[C@@H](CN1CCC2(CC1)OC(=O)NN=C2c1cc(C#N)ccc1Br)NC(=O)/C=C\C(=O)O [Example 2-047] |  |  | inhibition at 10 µM (full-length human PLD2; [5]): 34%; inhibition at 10 µM (full-length human PLD2; [6]): 34%; inhibition at 10 µM (full-length human PLD1; [7]): 32%; inhibition at 10 µM (full-length human PLD1; [8]): 32%
CNC(=O)C(=O)N[C@@H](C)CC1CC[C@]2(C[C@@H]1F)OC(=O)NN=C2c1ccc(F)cc1Br (stereo partly drawn) [Example 285] | < 10 nM | < 10 nM | 
C[C@@H](C[C@H]1CC[C@]2(CC1)OC(=O)NN=C2c1cc(C#N)ccc1Br)NC(=O)NC1CC1 [Example 222, 1-((S)-1-(cis-5-(2-bromo-5-cyanophenyl)-2-oxo-1-oxa-3,4-diazaspiro[5.5]undec-4-en-9-yl)propan-2-yl)-3-cyclopropylurea] | 171 nM | 59 nM | 
C[C@@H](CN1CCC2(CC1)OC(=O)NN=C2c1ccc(C#N)cc1Br)NC(=O)c1cncn1C [Example 2-059] | 505 nM | 731 nM | 
CNC(=O)C(=O)N[C@@H](C)C[C@H]1CC[C@]2(CC1)OC(=O)NN=C2c1cnc(N2C[C@@H]3C[C@H]2CO3)cc1Cl [Example 244] | < 10 nM | 19 nM | 
CNC(=O)C(=O)N[C@@H](C)C[C@H]1CC[C@]2(CC1)OC(=O)NN=C2c1cnc(N2CC(C(F)F)C2)cc1C [Example 227] | < 10 nM | 19 nM | 

Compound | IC50 (full-length human PLD2; [3]) | IC50 (full-length human PLD1; [4]) | further results
CNC(=O)C(=O)N[C@@H](C)C[C@H]1CC[C@]2(CC1)OC(=O)NN=C2c1ccc(OCC(F)F)cc1Br [Example 85] | < 10 nM | 12 nM | 
C[C@@H](C[C@H]1CC[C@]2(CC1)OC(=O)NN=C2c1ccc(F)cc1Br)NC(=O)OC(C)(C)C [Example 34] |  |  | inhibition at 10 µM (full-length human PLD2; [5]): 17%; inhibition at 10 µM (full-length human PLD2; [6]): 17%; inhibition at 10 µM (full-length human PLD1; [7]): 36%; inhibition at 10 µM (full-length human PLD1; [8]): 36%
C[C@@H](C[C@H]1CC[C@]2(CC1)OC(=O)NN=C2c1ccc(F)cc1Br)NC(=O)c1cc2ccccc2o1 [Example 19] | 10 nM | 17 nM | 
CNC(=O)C(=O)N[C@@H](C)C[C@H]1CC[C@]2(CC1)OC(=O)NN=C2c1cc(OCC(C)(C)O)ccc1Br [Example 2-014] | < 10 nM | 22 nM | 
CNC(=O)C(=O)N[C@@H](C)CN1CCC2(CC1)OC(=O)NN=C2c1cccc(F)c1Br [Example 2-030] | 18 nM | 31 nM | 
CNC(=O)C(=O)N[C@@H](C)C[C@H]1CC[C@]2(CC1)OC(=O)NN=C2c1ccc(OC)cc1Br [Example 58] | < 10 nM | 14 nM | 
CNC(=O)C(=O)N[C@@H](C)C[C@H]1CC[C@]2(CC1)OC(=O)NN=C2c1ccc(OCC(C)(C)O)cc1Br [Example 130] | < 10 nM | 18 nM | 
[2H]C([2H])([2H])NC(=O)C(=O)N[C@@H](C)C[C@]1(OC)CC[C@@]2(CC1)OC(=O)NN=C2c1cc(F)ccc1Br [Example 2-131] |  |  | IC50 (full-length human PLD2; [1]): < 10 nM; IC50 (full-length human PLD1; [2]): 15 nM
CNC(=O)C(=O)N[C@@H](C)C[C@H]1CC[C@]2(CC1)OC(=O)NN=C2c1cccnc1 [Example 17] | 1040 nM | 816 nM | 
CNC(=O)C(=O)N[C@@H](C)C[C@H]1CC[C@]2(CC1)OC(=O)NN=C2c1cnc(N2CCC(F)(F)C2)cc1C [Example 248] | < 10 nM | 17 nM | 
CNC(=O)C(=O)N[C@@H](C)C[C@]1(O)CC[C@@]2(CC1)OC(=O)NN=C2c1ccc(F)cc1Br [Example 321] | < 10 nM | 42 nM | 
Cc1ccc(C(=O)N[C@@H](C)C[C@H]2CC[C@]3(CC2)OC(=O)NN=C3c2ccc(F)cc2Br)nn1 [Example 252] | 335 nM | 174 nM | 
Cc1cc(Cl)c(C2=NNC(=O)O[C@]23CC[C@@H](C[C@H](C)NC(=O)c2cc(C)n[nH]2)CC3)cn1 [Example 231] | 12 nM | 24 nM | 
CNC(=O)C(=O)N[C@@H](C)CN1CC[C@@]2(C[C@H]1C)OC(=O)NN=C2c1ccc(C#N)cc1Cl [Example 233] | 1800 nM | 1860 nM | 
COc1cc(C)c(C2=NNC(=O)O[C@]23CC[C@@H](C[C@H](C)NC(=O)OCc2ccccc2)CC3)cn1 [Example 262] | < 10 nM | 15 nM | 
CNC(=O)C(=O)N[C@@H](C)C[C@]1(C#N)CC[C@@]2(CC1)OC(=O)NN=C2c1cc(OC(F)F)ccc1Br [Example 2-055] | < 10 nM | 11 nM | 
CNC(=O)C(=O)N[C@@H](C)C[C@H]1CC[C@]2(CC1)OC(=O)NN=C2c1cnc(N2CC(C)C2)cc1C [Example 182] | < 10 nM | 19 nM | 
C[C@@H](C[C@H]1CC[C@]2(CC1)OC(=O)NN=C2c1ccc(F)cc1Cl)NC(=O)C(=O)NC1CC1 [Example 70] | 20 nM | 28 nM | 
CNC(=O)C(=O)N[C@@H](C)C[C@H]1CC[C@]2(CC1)OC(=O)NN=C2c1cc(C)ccc1C [Example 126] | < 10 nM | 13 nM | 
CNC(=O)C(=O)N[C@@H](C)C[C@H]1CC[C@]2(CC1)OC(=O)NN=C2c1cnc(C2CC2)cc1Cl [Example 265] | < 10 nM | 13 nM | 
CNC(=O)C(=O)N[C@@H](C)C[C@]1(C#N)CC[C@@]2(CC1)OC(=O)NN=C2c1ccc(C#N)cc1Br [Example 2-065] | < 10 nM | 21 nM | 
